Several values for one entry are separate records, joined by “and”; a condition that tells them apart may be missing. Identical values can stand only once. Like-named read-outs stand apart in the source and are kept apart here.

Data set [1] is described as follows: pH-metric log P (ACD/Labs T3 method). The class given is physicochemical. As to the method: (§1) Because we believed that the physicochemical properties of newly-prepared diamides play important roles in their insecticidal activities, the studies were extended to investigate the bioavailability of organosulfur-based crop-protecting agents 14, 15a, 15b, 16a, and 16b in terms of plant systemic properties and membrane permeability. As references, their properties of chlorantraniliprole and cyantraniliprole were also measured.
[39] For LogP, Using ACD/Labs T3 method (pH—metric), for graphs; please see the Supplementary materials.
(§2) Table S3. Physical properties of organosulfur-substituted anthranilic […]
(§3) Entry X Y Log P c,d Permeability e […]
(§4) aMethod for determination of equilibrium solubility: μSOL 25; bat 25 ℃ and pH 7.4; cUsing ACD / Labs T3 method (pH – metric); dfor graphs, please see the supporting information, eMethod for determination of […]

Data set [2] concerns third instar larvae of Spodoptera litura. Put plainly: whole plant or invertebrate. The format is in vivo. To be noted: for mortality at 50 ppm: Spodoptera litura; for mortality / Eating Area (%) 96 h: third instar larvae of S. litura, concentration of 14 and 15a 50 ppm. As to the method: For the practical test, newly-prepared compounds 14–16 were evaluated for their insecticidal activities against the third instar larvae of Spodoptera litura according to the reported leaf-dip method.
[35] According to the literature 3a, 3b, and 3d methods, the insecticidal assays were performed by Kyung Nong Co. Ltd., Korea. In detail, please see the Supplementary materials.
Table S1 and S2: Larvicidal activity against Spodoptera (14 and 15a)
The lavicidal activities of synthesized compounds were evaluated by the leaf-dip procedure. 6 The aqueous solution of prepared compounds and chlorantraniliprole in acetone (H 2O : acetone = 95 : 5) were sprayed to a cabbage leave placed on moistened filter paper (disc, diameter 8.8 cm) in petri dishes. After allowing to dry, the dishes were infested with 10 Spodoptera litura (third-instar). After 1, 2, 3, and 4 days, percentage of mortalities was evaluated. The treatments were replicated three times. For negative control, larvicidal activities were 0 % at each time. Ref. is chlorantraniliprole as a positive control.
Table S1. Larvicidal activity depend on time against the 3 rd instar larvae of Spodoptera litura
Entry Compd Concentration Larvicidal activity (%) at 24 h
Entry Compd Concentration Larvicidal activity (%) at 48 h

Data set [3] is classed as in vitro ADME. The settings on record: PAMPA. As to the method:
as §1
(§5) [37] The physicochemical measurements for determinations of equilibrium solubility, log P, and PAMPA permeability were performed by Drug Discovery Platform Technology Team, KRICT, Korea.
as §2, §3, §4
(In general: PAMPA measures passive passage across an artificial lipid membrane.)

A short description of data set [4]: Equilibrium solubility (μSOL). To be noted: 25 °C, pH 7.4, aqueous buffer, thermodynamic from solid. The class given is physicochemical. As for the experimental part: as §1, §5, §2, §3, §4
[5] abbreviates: read-out: Larvicidal Activity (%) at Time (h) 72 h, 72 h.
The mark [6] stands for this setting: read-out: Larvicidal Activity (%) at Time (h) 96 h, 96 h.

In general, logP refers to a log measure of how a compound divides between an organic and an aqueous phase. In general, solubility refers to the dissolved amount per volume that the medium holds. Turning to `CNC(=O)c1cc(SC)cc(C)c1NC(=O)c1cc(Br)nn1-c1ncccc1Cl` [Compound 14, 3-Bromo-1-(3-chloropyridin-2-yl)-N-(2-methyl-6-(methylcarbamoyl)-4-(methylthio)phenyl)-1H-pyrazole-5-carboxamide], in data set [1], the logP was 3.45. Also, the mortality at 50 ppm in data set [2] (24 h, read-out: Larvicidal activity (%) at 24 h, Average, 24 h, average of three replicates) turned out to be 0%; in data set [2] (24 h, read-out: Larvicidal activity (%) at 24 h, replicate 1, 24 h), 0%; in data set [2] (24 h, read-out: Larvicidal activity (%) at 24 h, replicate 2, 24 h), 0%; in data set [2] (24 h, read-out: Larvicidal activity (%) at 24 h, replicate 3, 24 h) it was 0%; in data set [2] (48 h, read-out: Larvicidal activity (%) at 48 h, Average, 48 h, average of three replicates), 13.3%; in data set [2] (48 h, read-out: Larvicidal activity (%) at 48 h, replicate 1, 48 h), 20%. Further, the mortality at 50 ppm in data set [2] (48 h, read-out: Larvicidal activity (%) at 48 h, replicate 2, 48 h) worked out at 0%; in data set [2] (48 h, read-out: Larvicidal activity (%) at 48 h, replicate 3, 48 h), 20%; in data set [2] (72 h, read-out: Larvicidal activity (%) at 72 h, replicate 1, 72 h), 70%; in data set [2] (72 h, read-out: Larvicidal activity (%) at 72 h, replicate 2, 72 h), 30%; in data set [2] (72 h, read-out: Larvicidal activity (%) at 72 h, replicate 3, 72 h) it was 40%; in data set [2] (96 h, read-out: Larvicidal activity (%) at 96 h, replicate 1, 96 h), 80%. Moreover, the mortality at 50 ppm was determined as 70% in data set [2] (96 h, read-out: Larvicidal activity (%) at 96 h, replicate 2, 96 h) and 70% in data set [2] (96 h, read-out: Larvicidal activity (%) at 96 h, replicate 3, 96 h). Further, the mortality was determined as 46.7% in data set [2] (setting [5]) and 73.3% in data set [2] (setting [6]). For the same compound, in data set [2] (96 h), the “Eating Area (%) 96 h” value is listed as 5–10%. In addition, the Permeability result in data set [3] was “- 4.3 ± 0.047”. In addition, the solubility in data set [4] is 5.4 µM and 2.67 µg/mL.

Take `CNC(=O)c1cc([S+](C)[O-])cc(C)c1NC(=O)c1cc(Br)nn1-c1ncccc1Cl` (centres unmarked) [Compound 15b, 3-bromo-1-(3-chloropyridin-2-yl)-N-(2-methyl-6-(methylcarbamoyl)-4-(methylsulfinyl)phenyl)-1H-pyrazole-5-carboxamide]: the logP in data set [1] is 2.59. Besides, the mortality in data set [2] (setting [5]) and in data set [2] (setting [6]) was 0% each time. Further, the “Eating Area (%) 96 h” value in data set [2] (96 h) is recorded as more than 30%. In data set [3], the Permeability result was “- 4.8 ± 0.037”. The solubility in data set [4] was 486 µM and 248 µg/mL.

These data come from PMC6804157, “Synthesis, Physicochemical Properties, and Biological Activities of 4-(S-Methyl-N-(2,2,2-Trifluoroacetyl)Sulfilimidoyl) Anthranilic Diamide” (Molecules, 2019).
